Data: patent US20110065138A1, “Quantitative Method For Detecting Yessotoxins In Fishery Products On Based On The Activation That The Toxin Produces In Cellular Phosphodiesterases And Therapeutic Use Of This Activation” (UNIVERSIDADE DE SANTIAGO DE COMPOSTELA, priority 2003, published 2011)

What was measured:
[1] = system: HEP-G2 cells; test: HEP-G2 cell growth inhibition by crystal violet staining; assay type: cell-based; details: Homo sapiens, HepG2, 10 μM of YTX, 48 hours incubation, absorbance 595 nm
From the text: Neoplasic cell growth inhibition is an indicator of antitumor activity widely used to describe antineoplasic properties of new drugs. […] The ability of YTX as a cytotoxic drug for hepatic carcinoma tumor cells is quantified in the present use. Cell growth inhibition can be determined according to different protocols described in the literature. One of these protocols is set forth below in which the response is quantified in the HEP-G2 cell line by means of crystal violet staining and subsequent acetylation.
a.—HEP-G2 cells are seeded on a microtitration plate with a density of 10000 cells per well. They are incubated for 24 hours with growth medium at 37° C. and 5% CO2.
b.—Different concentrations of YTX are added and it is incubated for 48 hours at 37° C. and 5% CO2.
c.—10 μL of 11% glutaraldehyde are added to fix the cells and it is incubated for 15 minutes. It is washed 3-4 times with distilled water.
d.—A 0.1% solution of crystal violet is added and the plate is shaken for 15 minutes.
e.—The dye is removed by washing with distilled water and it is subsequently dried.
f.—10% acetic acid is added and shaking is maintained for 15 minutes.
g.—Absorbance is read in a spectrophotometer at 595 nanometers.
h.—It was found with this protocol that 10 μM of YTX induce cell growth inhibition of about 82+/−1%.

[2] = system: rat mastocytes; test: Inhibition of histamine release induced by immunological stimulus (ovalbumin) in rat mastocytes; assay type: cell-based
From the text: Immunological activation of mastocytes and basophils requires a temporary increase of cAMP. This increase is indispensable for cell response activation (Botana and MacGlashan, 1994). PDE activation cancels this initial cAMP peak, and therefore prevents cell activation. In the presence of YTX, i.e. with activated PDEs, cell response will be inhibited. The inhibiting effect can be used in antiallergic or antiasthmatic therapeutic strategies, these being two pathologies in which mastocytes play a predominant role (Metcalfe, Baram, D. et al., 1997). The present use describes the quantification of the inhibition that YTX produces on cell activation induced by immunological stimulus in mastocytes in rats. Cell response inhibition can be determined according to different protocols described in the literature. One in which the response is quantified according to the histamine released by mastocytes in rats into the extracellular medium is set forth below (Alfonso, Cabado, A. G. et al., 2000; Estévez, Vieytes, et al., 1994).
a.—The rats are sensitized 15 days before conducting the experiment. […]
g.—The histamine is finally quantified, converting it into a fluorescent molecule by reaction in a base medium with o-phthalic dialdehyde. The reaction is stopped with hydrochloric acid and the fluorescence is read at 360 nm excitation and 460 nm emission.

[3] = system: cellular phosphodiesterases (PDEs); test: Activation of cellular phosphodiesterases (destruction of cAMP); assay type: biochemical
From the text: A usual way of detecting cellular PDE activity is to observe their ability to destroy cAMP. There is a fluorescent derivative of cAMP, anthraniloyl-cAMP (excitation wavelength: 350 nm, emission wavelength: 445 nm), the fluorescence of which decreases as it degrades. The decrease of fluorescence over time can be expressed as the destruction rate of cAMP. In the presence of PDEs, the destruction rate increases, and if these enzymes are activated, the degradation rate will be even greater. In the present invention the degradation rate of the fluorescent indicator anthraniloyl-cAMP in the presence of PDEs is determined and its variation when samples with YTX are added is studied. Fluorescence is read with a fluorimeter that is prepared for reading microtitration plates. The destruction rate is determined in the presence of several known concentrations of YTX. […]
The method is carried out in a microtitration plate in a temperature range between 22 and 37° C. and the fluorescence is measured at an excitation wavelength of 360 nanometers and an emission wavelength of 460 nanometers.
a.—Test buffer (10 mM Tris HCl+1 mM CaCl2 pH 7.4) is added in all the wells for a final incubation volume of 100 μL, and the corresponding amount, depending on the type of well, of anthraniloyl-cAMP. A first reading is performed for 2 minutes. […]

[4] = system: cellular phosphatases; details: in contrast to okadaic acid (Draisci, Lucentini et al., 2000); cited from earlier work

## C=CCC(=C)/C=C/[C@@](C)(O)[C@H]1O[C@@H]2C[C@@H]3O[C@@H]4C[C@@H]5O[C@@H]6C[C@@H]7O[C@@H]8C[C@@H]9O[C@@H]%10C[C@@H]%11O[C@](C)(CCOS(=O)(=O)O)[C@@H](OS(=O)(=O)O)C[C@H]%11O[C@H]%10C[C@H]9O[C@H]8CC[C@@]7(C)O[C@@]6(C)CC[C@H](C)[C@H]5O[C@H]4C[C@@]3(C)O[C@H]2CC1=C [YTX, yessotoxin]
[1]
  inhibition at 10 µM: ~82%
[2]
  effect on histamine release activated by immunological stimulus: histamine release inhibitor
[3]
  effect on PDE activity: PDE activator
[4]
  effect on cellular phosphatases: does not inhibit
